Assay results as given in paper PMC9319179, “Heterologous Expression and Characterization of Plant Wax Ester Producing Enzymes” (Metabolites, 2022).

Legend:
Arabidopsis At5g55340 WS = molecular target: T1, Arabidopsis At5g55340 WS (Arabidopsis thaliana, UniProt Q9FJ76); experiment: in vivo feeding of expressing yeast, wax esters by TLC and GC-MS; format: cell-based; details: S. cerevisiae H1246; 50 uM alcohol with fed fatty acid (13:0 preferred), 20 °C; acyl donor formed in vivo
T1 construct: gene AT5
T1 sequence (Q9FJ76 1-333): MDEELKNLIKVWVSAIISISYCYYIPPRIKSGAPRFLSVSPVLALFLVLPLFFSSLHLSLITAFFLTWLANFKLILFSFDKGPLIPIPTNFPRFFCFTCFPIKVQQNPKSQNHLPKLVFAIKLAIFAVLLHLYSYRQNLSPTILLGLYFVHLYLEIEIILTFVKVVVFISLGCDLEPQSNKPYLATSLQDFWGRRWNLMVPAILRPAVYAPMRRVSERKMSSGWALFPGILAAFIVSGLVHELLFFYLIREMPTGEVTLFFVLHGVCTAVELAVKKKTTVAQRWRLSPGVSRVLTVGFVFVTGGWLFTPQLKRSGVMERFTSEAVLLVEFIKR

[1] = molecular target: T2, maize WS (NP_001147171.1) (Zea mays, UniProt B6SLT2); experiment: in vivo feeding of expressing yeast, ethyl/benzyl esters by GC-MS; format: cell-based; details: S. cerevisiae H1246; fed fatty acids (14:1 preferred acyl), 20 °C; acyl donor formed in vivo
T2 construct: full-length ORF, C-terminal His6 tag, yeast codon-optimized synthetic ORF, expressed in S. cerevisiae H1246
T2 sequence (B6SLT2 1-345): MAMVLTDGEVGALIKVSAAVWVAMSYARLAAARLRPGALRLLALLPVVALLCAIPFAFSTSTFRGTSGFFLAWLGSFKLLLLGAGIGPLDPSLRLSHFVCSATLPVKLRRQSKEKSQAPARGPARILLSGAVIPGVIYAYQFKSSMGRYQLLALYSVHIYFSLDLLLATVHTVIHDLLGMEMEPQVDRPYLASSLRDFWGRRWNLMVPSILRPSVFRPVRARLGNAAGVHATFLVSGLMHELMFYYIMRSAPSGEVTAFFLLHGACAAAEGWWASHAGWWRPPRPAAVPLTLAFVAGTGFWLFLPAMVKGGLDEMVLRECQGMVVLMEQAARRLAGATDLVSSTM

Row | SMILES | in vivo feeding of expressing yeast, wax esters by TLC and GC-MS (Arabidopsis At5g55340 WS) | in vivo feeding of expressing yeast, ethyl/benzyl esters by GC-MS [1]
1 | CCCCCCCCCCCCCO [C13:0, C13:0 fatty alcohol] | apparent optimum at 13-carbon chain length for both the fatty acid and fatty alcohol | 
2 | OCc1ccccc1 [benzyl alcohol] |  | ability to assemble esters with ethanol, benzyl alcohol, and phenylethyl alcohol
3 | CCO [ethanol] |  | ability to assemble esters with ethanol, benzyl alcohol, and phenylethyl alcohol
